Measurements as given in ChEMBL document CHEMBL5625249, “Optimization and antifungal activity of quinoline derivatives linked to chalcone moiety combined with FLC against Candida albicans” (Eur J Med Chem, 2023).
Calls of active or inactive are those of the source. The rule behind the calls is not given here.

Assays:
Candida albicans [1] = assay: Synergistic antifungal activity against FLC-sensitive Candida albicans SC5314 measured after 24 hrs in presence of fluconazole by microdilution method; assay type: functional
Candida albicans [2] = assay: Antifungal activity against clinical FLC-resistant Candida albicans 550 measured after 24 hrs by microdilution method; assay type: functional
Candida albicans [3] = assay: Antifungal activity against clinical FLC-resistant Candida albicans 800 measured after 24 hrs by microdilution method; assay type: functional
Candida albicans [4] = assay: Antifungal activity against FLC-resistant Candida albicans ATCC 14053 measured after 24 hrs by microdilution method; assay type: functional
Candida albicans [5] = assay: Synergistic antifungal activity against clinical FLC-resistant Candida albicans 808 measured after 24 hrs by microdilution method; assay type: functional
Candida albicans [6] = assay: Synergistic antifungal activity against clinical FLC-resistant Candida albicans 550 measured after 24 hrs by microdilution method; assay type: functional
Candida albicans [7] = assay: Synergistic antifungal activity against clinical FLC-resistant Candida albicans 800 measured after 24 hrs by microdilution method; assay type: functional
Candida albicans [8] = assay: Synergistic antifungal activity against clinical FLC-resistant Candida albicans 808 assessed as fractional inhibitory concentration index measured after 24 hrs by microdilution method; assay type: functional
Candida albicans [9] = assay: Synergistic antifungal activity against clinical FLC-resistant Candida albicans 800 assessed as fractional inhibitory concentration index measured after 24 hrs by microdilution method; assay type: functional
Candida albicans [10] = assay: Synergistic antifungal activity against clinical FLC-resistant Candida albicans 799 assessed as fractional inhibitory concentration index measured after 24 hrs by microdilution method; assay type: functional
Candida albicans [11] = assay: Synergistic antifungal activity against clinical FLC-resistant Candida albicans 3816 assessed as fractional inhibitory concentration index measured after 24 hrs by microdilution method; assay type: functional
Candida albicans [12] = assay: Synergistic antifungal activity against clinical FLC-resistant Candida albicans 4574 assessed as fractional inhibitory concentration index measured after 24 hrs by microdilution method; assay type: functional
Candida albicans [13] = assay: Antifungal activity against FLC-resistant Candida albicans ATCC 14053 at 1 ug/mL measured over 48 hrs by time-killing assay; assay type: functional, organism-based; conditions: dose 1.0 µg/ml
Candida albicans [14] = assay: Synergistic antifungal activity against FLC-resistant Candida albicans ATCC 14053 measured over 48 hrs in presence of fluconazole by time-killing assay; assay type: functional, organism-based
Candida albicans [15] = assay: Synergistic antifungal activity against FLC-resistant Candida albicans ATCC 14053 assessed as inhibition of rhodamine 6G efflux measured within 30 mins in presence of fluconazole by Rhodamine 6G staining based fluorescence assay; assay type: functional, organism-based
Candida albicans [16] = assay: Synergistic antifungal activity against FLC-resistant Candida albicans ATCC 14053 assessed as inhibition of rhodamine 6G efflux incubated for 4 hrs under shaking condition in presence of fluconazole by Rhodamine 6G staining based fluorescence assay; assay type: functional, organism-based
Candida albicans [17] = assay: Synergistic antifungal activity against FLC-resistant Candida albicans ATCC 14053 assessed as inhibition of hyphal formation by measuring down regulation of ECE1 gene expression at 1 ug/ml measured after 16 to 18 hrs in presence of fluconazole by qRT-PCR analysis; assay type: functional, organism-based; conditions: dose 1.0 µg/ml, time 16-18 hrs
Candida albicans [18] = assay: Synergistic antifungal activity against FLC-resistant Candida albicans ATCC 14053 assessed as inhibition of hyphal formation by measuring down regulation of ALS3 gene expression at 1 ug/ml measured after 16 to 18 hrs in presence of fluconazole by qRT-PCR analysis; assay type: functional, organism-based; conditions: dose 1.0 µg/ml, time 16-18 hrs
Candida albicans [19] = assay: Synergistic antifungal activity against FLC-resistant Candida albicans ATCC 14053 assessed as inhibition of hyphal formation by measuring down regulation of HWP1 gene expression at 1 ug/ml measured after 16 to 18 hrs in presence of fluconazole by qRT-PCR analysis; assay type: functional, organism-based; conditions: dose 1.0 µg/ml, time 16-18 hrs
Candida albicans [20] = assay: Antifungal activity against FLC-resistant Candida albicans ATCC 14053 cultured in SD +10% FBS liquid medium assessed as inhibition of hyphal formation at 1 ug/ml measured after 2 hrs by inverted microscopy; assay type: functional, organism-based; conditions: dose 1.0 µg/ml
[21] = Toxicity in Balb/c mouse assessed as death at 15 mg/kg, ig measured daily for 6 days; assay type: organism-based; conditions: in vivo, po, 144 h, time 6 day
Candida albicans [22] = assay: In vivo antifungal activity against FLC-resistant Candida albicans ATCC 14053 infected in Balb/c mouse assessed as survival rate at 15 mg/kg, ig measured daily for 6 days (Rvb < 20%); assay type: functional; conditions: ATCC 14053, po, 144 h, time 6 day
[23] = Toxicity in Balb/c mouse assessed as weight loss at 7.5 to 15 mg/kg, ig measured daily for 6 days in presence of fluconazole; assay type: organism-based; conditions: in vivo, po, 144 h, dose 7.5-15 mg/kg, time 6 day
[24] = Toxicity in Balb/c mouse infected with FLC-resistant Candida albicans ATCC 14053 assessed as weight loss at 15 mg/kg, ig measured daily for 6 days; assay type: organism-based; conditions: in vivo, po, 144 h, time 6 day
Candida albicans [25] = assay: In vivo antifungal activity against FLC-resistant Candida albicans ATCC 14053 infected in Balb/c mouse assessed as reduction in liver fungal load at 7.5 to 15 mg/kg, ig measured after 6 days in presence of fluconazole; assay type: functional, organism-based; conditions: dose 7.5-15 mg/kg, time 6.0 day
Candida albicans [26] = assay: In vivo antifungal activity against FLC-resistant Candida albicans ATCC 14053 infected in Balb/c mouse assessed as reduction in liver fungal load at 15 mg/kg, ig measured after 6 days; assay type: functional, organism-based; conditions: time 6.0 day
Candida albicans [27] = assay: In vivo antifungal activity against FLC-resistant Candida albicans ATCC 14053 infected in Balb/c mouse assessed as reduction in lung fungal load at 7.5 to 15 mg/kg, ig measured after 6 days in presence of fluconazole; assay type: functional, organism-based; conditions: dose 7.5-15 mg/kg, time 6.0 day
Candida albicans [28] = assay: In vivo antifungal activity against FLC-resistant Candida albicans ATCC 14053 infected in Balb/c mouse assessed as reduction in lung fungal load at 15 mg/kg, ig measured after 6 days; assay type: functional, organism-based; conditions: time 6.0 day
Candida albicans [29] = assay: In vivo antifungal activity against FLC-resistant Candida albicans ATCC 14053 infected in Balb/c mouse assessed as restoration of normal lung morphology at 15 mg/kg, ig measured after 6 days by H and E staining based histopathological analysis; assay type: functional, organism-based; conditions: time 6.0 day
Candida albicans [30] = assay: In vivo antifungal activity against FLC-resistant Candida albicans ATCC 14053 infected in Balb/c mouse assessed as reduction in severity of lesions in kidney at 15 mg/kg, ig measured after 6 days by H and E staining based histopathological analysis; assay type: functional, organism-based; conditions: time 6.0 day
Candida albicans [31] = assay: In vivo antifungal activity against FLC-resistant Candida albicans ATCC 14053 infected in Balb/c mouse assessed as reduction in infiltration of inflammatory cells at 15 mg/kg, ig measured after 6 days by H and E staining based histopathological analysis; assay type: functional, organism-based; conditions: time 6.0 day
Candida albicans [32] = assay: In vivo antifungal activity against FLC-resistant Candida albicans ATCC 14053 infected in Balb/c mouse assessed as reduction in internal fungal growth at 7.5 to 15 mg/kg, ig measured after 6 days in presence of fluconazole by H and E staining based histopathological analysis; assay type: functional, organism-based; conditions: dose 7.5-15 mg/kg, time 6.0 day
Candida albicans [33] = assay: In vivo antifungal activity against FLC-resistant Candida albicans ATCC 14053 infected in Balb/c mouse assessed as restoration of kidney morphology at 7.5 to 15 mg/kg, ig measured after 6 days in presence of fluconazole by H and E staining based histopathological analysis; assay type: functional, organism-based; conditions: dose 7.5-15 mg/kg, time 6.0 day
Candida albicans [34] = assay: In vivo antifungal activity against FLC-resistant Candida albicans ATCC 14053 infected in Balb/c mouse assessed as reduction in infiltration of inflammatory cells at 7.5 to 15 mg/kg, ig measured after 6 days in presence of fluconazole by H and E staining based histopathological analysis; assay type: functional, organism-based; conditions: dose 7.5-15 mg/kg, time 6.0 day

In the case of `CN1CCN(c2nc3ccccc3cc2/C=C/C(=O)c2ccc(N3CCN(Cc4ccc(C(F)(F)F)cc4)CC3)cc2)CC1`, the MIC80 (Candida albicans [1]) is reported as 0.99 mg/L, the MIC80 (Candida albicans [2]) is reported as greater than 40 mg/L and the MIC80 (Candida albicans [3]) is reported as greater than 40 mg/L. The MIC80 (Candida albicans [4]) was greater than 40 mg/L, the MIC80 (Candida albicans [5]) was 0.38 mg/L and the MIC80 (Candida albicans [6]) was 5.9 mg/L. The MIC80 (Candida albicans [7]) was 1.28 mg/L, the “fractional inhibitory concentration index (FICI)” value (Candida albicans [8]) was 0.01 and the “fractional inhibitory concentration index (FICI)” value (Candida albicans [9]) was 0.03. For the same molecule, the “fractional inhibitory concentration index (FICI)” value (Candida albicans [10]) was 0.03, the “fractional inhibitory concentration index (FICI)” value (Candida albicans [11]) was 0.03 and the “fractional inhibitory concentration index (FICI)” value (Candida albicans [12]) was 0.02. The Activity (Candida albicans [13]) was “inactive”, the Activity (Candida albicans [14]) was “Dose-Dependent Effect” and the inhibition (Candida albicans [15]) was “inactive”. For the same molecule, the inhibition (Candida albicans [16]) was “Active”, the inhibition (Candida albicans [17]) was “Active” and the inhibition (Candida albicans [18]) was “Active”. The inhibition (Candida albicans [19]) was “Active”, the inhibition (Candida albicans [20]) was “inactive” and the Activity [21] was “Non-Toxic”. For the same molecule, the survival at 15 mg/kg (Candida albicans [22]) was 30%, the Activity [23] was “Non-Toxic” and the Activity [24] was “Toxic”. For the same molecule, the Activity (Candida albicans [25]) was “inactive”, the Activity (Candida albicans [26]) was “inactive” and the Activity (Candida albicans [27]) was “inactive”. For the same molecule, the Activity (Candida albicans [28]) was “inactive”, the Activity (Candida albicans [29]) was “inactive” and the Activity (Candida albicans [30]) was “inactive”. The Activity (Candida albicans [31]) was “inactive”, the Activity (Candida albicans [32]) was “Active” and the Activity (Candida albicans [33]) was “Active”. For the same molecule, the Activity (Candida albicans [34]) was “Active”.
